Experimental data reported in patent US10912774B2, “Pyrimidine FGFR4 inhibitors” (priority 2013, dated 2021).

Tested on: HEP3B tumor xenografts
Format: in vivo
[1] = Hep3B xenograft, 60 mg/kg orally twice daily

Compound	efficacy compared with compound 108 [1]	tolerability (health of animals) [1]	efficacy compared with BGJ398 (Hep3B xenograft, 25, 37.5 or 50 mg/kg i.p. twice daily)
CCN1CCN(c2ccc(Nc3cc(N(C)C(=O)Nc4c(Cl)c(OC)cc(OC)c4Cl)ncn3)cc2)CC1 [BGJ398]	efficacy comparable to compound 108	had to be terminated on Day 11 due to poor health of animals	–
C=CC(=O)Nc1cc(N2CCN(CC)CC2)ccc1Nc1cc(N(C)C(=O)Nc2c(Cl)c(OC)cc(OC)c2Cl)ncn1 [Compound 108, N-(2-(6-(3-(2,6-Dichloro-3,5-dimethoxyphenyl)-1-methylureido)pyrimidin-4-ylamino)-5-(4-ethylpiperazin-1-yl)-phenyl)acrylamide]	–	–	more efficacious than BGJ398 at tolerable dosage levels
